According to ChEMBL document CHEMBL1201862, “PubChem BioAssay data set” (2004):
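1) Cells in 96-well plates. 2) Compound, 48 h, 5 concentrations. 3) Linear interpolation between surrounding doses. 4) Unreached endpoint = highest concentration. Here, GI50 denotes the concentration required for 50% inhibition of growth.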 Calls of active or inactive are those of the source. Cut-off read from the data, not from the text of the source: active = GI50 up to about 1.1 µM and inactive = higher.

How the values were obtained:
Experiment in all cases: DTP human tumour cell line panel, 48 h
UO-31 = system: UO-31
SR = system: SR
Malme-3M = system: Malme-3M
MOLT-4 = system: MOLT-4
786-0 = system: 786-0
CAKI-1 = system: CAKI-1
SK-MEL-28 = system: SK-MEL-28
UACC-62 = system: UACC-62
HCT-15 = system: HCT-15
SW-620 = system: SW-620
TK-10 = system: TK-10
MDA-MB-231 = system: MDA-MB-231
SNB-75 = system: SNB-75
A498 = system: A498
SF-268 = system: SF-268
SNB-19 = system: SNB-19
HCC 2998 = system: HCC 2998
M14 = system: M14
SN12C = system: SN12C
ACHN = system: ACHN
PC-3 = system: PC-3
OVCAR-3 = system: OVCAR-3
SF-295 = system: SF-295
SF-539 = system: SF-539
LOX IMVI = system: LOX IMVI
MCF7 = system: MCF7
HT-29 = system: HT-29
NCI/ADR-RES = system: NCI/ADR-RES
Hs-578T = system: Hs-578T
U-251 = system: U-251
UACC-257 = system: UACC-257
DU-145 = system: DU-145
COLO 205 = system: COLO 205
T47D = system: T47D
HOP-92 = system: HOP-92
EKVX = system: EKVX
K562 = system: K562
A549 = system: A549
BT-549 = system: BT-549
HCT-116 = system: HCT-116
MDA-MB-435 = system: MDA-MB-435
OVCAR-8 = system: OVCAR-8
HOP-62 = system: HOP-62
NCI-H522 = system: NCI-H522
HL-60 = system: HL-60
SK-MEL-5 = system: SK-MEL-5
KM12 = system: KM12
CCRF-CEM = system: CCRF-CEM
MDA-N = system: MDA-N
OVCAR-5 = system: OVCAR-5
OVCAR-4 = system: OVCAR-4
SK-MEL-2 = system: SK-MEL-2
NCI-H23 = system: NCI-H23
SK-OV-3 = system: SK-OV-3
NCI-H460 = system: NCI-H460
NCI-H226 = system: NCI-H226

SMILES: CCOC(=O)CCC(NC(=O)Cc1ccc(Nc2nc3cc(F)c(F)cc3nc2C(=O)OCC)cc1)C(=O)OCC (stereo unspecified)
- GI50 (UO-31): > 100 µM (inactive)
- GI50 (SR): 27.5 µM (inactive)
- GI50 (Malme-3M): 88.1 µM (inactive)
- GI50 (MOLT-4): 44.6 µM (inactive)
- GI50 (786-0): > 100 µM (inactive)
- GI50 (CAKI-1): > 100 µM (inactive)
- GI50 (SK-MEL-28): > 100 µM (inactive)
- GI50 (UACC-62): 58.7 µM (inactive)
- GI50 (HCT-15): > 100 µM
- GI50 (SW-620): 73.6 µM (inactive)
- GI50 (TK-10): > 100 µM (inactive)
- GI50 (MDA-MB-231): 41.8 µM (inactive)
- GI50 (SNB-75): 35.2 µM (inactive)
- GI50 (A498): > 100 µM (inactive)
- GI50 (SF-268): 31.3 µM (inactive)
- GI50 (SNB-19): > 100 µM (inactive)
- GI50 (HCC 2998): > 100 µM (inactive)
- GI50 (M14): > 100 µM (inactive)
- GI50 (SN12C): 69.2 µM (inactive)
- GI50 (ACHN): > 100 µM (inactive)
- GI50 (PC-3): > 100 µM (inactive)
- GI50 (OVCAR-3): > 100 µM (inactive)
- GI50 (SF-295): > 100 µM (inactive)
- GI50 (SF-539): > 100 µM (inactive)
- GI50 (LOX IMVI): 44.4 µM (inactive)
- GI50 (MCF7): 88.7 µM (inactive)
- GI50 (HT-29): > 100 µM (inactive)
- GI50 (NCI/ADR-RES): > 100 µM (inactive)
- GI50 (Hs-578T): 40.8 µM (inactive)
- GI50 (U-251): > 100 µM (inactive)
- GI50 (UACC-257): 28.6 µM (inactive)
- GI50 (DU-145): > 100 µM (inactive)
- GI50 (COLO 205): > 100 µM (inactive)
- GI50 (T47D): 25.2 µM (inactive)
- GI50 (HOP-92): 28.8 µM (inactive)
- GI50 (EKVX): > 100 µM (inactive)
- GI50 (K562): 37.2 µM (inactive)
- GI50 (A549): > 100 µM (inactive)
- GI50 (BT-549): 51.2 µM (inactive)
- GI50 (HCT-116): 83.9 µM (inactive)
- GI50 (MDA-MB-435): > 100 µM (inactive)
- GI50 (OVCAR-8): 94.2 µM (inactive)
- GI50 (HOP-62): > 100 µM (inactive)
- GI50 (NCI-H522): 38.2 µM (inactive)
- GI50 (HL-60): 21.5 µM (inactive)
- GI50 (SK-MEL-5): > 100 µM (inactive)
- GI50 (KM12): > 100 µM (inactive)
- GI50 (CCRF-CEM): 20.8 µM (inactive)
- GI50 (MDA-N): > 100 µM (inactive)
- GI50 (OVCAR-5): > 100 µM (inactive)
- GI50 (OVCAR-4): > 100 µM (inactive)
- GI50 (SK-MEL-2): 23.7 µM (inactive)
- GI50 (NCI-H23): > 100 µM (inactive)
- GI50 (SK-OV-3): > 100 µM (inactive)
- GI50 (NCI-H460): > 100 µM (inactive)
- GI50 (NCI-H226): > 100 µM (inactive)
